How the values were obtained:
SR = experiment: panel of 60 human tumor cell lines, growth inhibition (Leukemia)
TK-10 = experiment: panel of 60 human tumor cell lines, growth inhibition (Renal Cancer); conditions: TK-10
NCI/ADR-RES = experiment: panel of 60 human tumor cell lines, growth inhibition (Ovarian Cancer)
SK-MEL-28 = experiment: panel of 60 human tumor cell lines, growth inhibition (Melanoma); conditions: SK-MEL-28
MOLT-4 = experiment: panel of 60 human tumor cell lines, growth inhibition (Leukemia); conditions: MOLT-4
NCI-H23 = experiment: panel of 60 human tumor cell lines, growth inhibition (Non-Small Cell Lung Cancer); conditions: NCI-H23
NCI-H460 = experiment: as above; conditions: NCI-H460
MDA-MB-468 = experiment: panel of 60 human tumor cell lines, growth inhibition (Breast Cancer); conditions: MDA-MB-468
SK-MEL-5 = experiment: panel of 60 human tumor cell lines, growth inhibition (Melanoma); conditions: 8K-MEL-5
T-47D = experiment: panel of 60 human tumor cell lines, growth inhibition (Breast Cancer); conditions: T-47D
KM12 = experiment: panel of 60 human tumor cell lines, growth inhibition (Colon Cancer); conditions: KM12
COLO 205 = experiment: as above; conditions: COLO 205
OVCAR-8 = experiment: panel of 60 human tumor cell lines, growth inhibition (Ovarian Cancer); conditions: OVCAR-8
HT29 = experiment: panel of 60 human tumor cell lines, growth inhibition (Colon Cancer); conditions: HT29
SF-539 = experiment: panel of 60 human tumor cell lines, growth inhibition (CNS Cancer); conditions: SF-539
HS 578T = experiment: panel of 60 human tumor cell lines, growth inhibition (Breast Cancer); conditions: HS 578T
CCRF-CEM = experiment: panel of 60 human tumor cell lines, growth inhibition (Leukemia)
MDA-MB-435 = experiment: panel of 60 human tumor cell lines, growth inhibition (Melanoma); conditions: MDA-MB-435
ACHN = experiment: panel of 60 human tumor cell lines, growth inhibition (Renal Cancer)

C=C1C(=O)O[C@H]2[C@H]1CC/C(COC(=O)N1CCC(F)(F)CC1)=C\CC[C@@]1(C)O[C@@H]21 [JVM 2-66]
GI50 (SR): 1380 nM | TGI (SR): 7.24E−6 | Percent Growth (SR; Log10 Concentration −4.0): −38% | Percent Growth (SR; Log10 Concentration −5.0): −10% | Percent Growth (SR; Log10 Concentration −6.0): 60% | Percent Growth (SR; Log10 Concentration −7.0): 87% | Percent Growth (SR; Log10 Concentration −8.0): 94% | GI50 (TK-10): 2600 nM | TGI (TK-10): 6.55E−6 | Percent Growth (TK-10; Log10 Concentration −4.0): −96% | Percent Growth (TK-10; Log10 Concentration −5.0): −23% | Percent Growth (TK-10; Log10 Concentration −6.0): 102% | Percent Growth (TK-10; Log10 Concentration −7.0): 95% | Percent Growth (TK-10; Log10 Concentration −8.0): 94% | GI50 (NCI/ADR-RES): 5220 nM | TGI (NCI/ADR-RES): 2.08E−5 | Percent Growth (NCI/ADR-RES; Log10 Concentration −4.0): −65% | Percent Growth (NCI/ADR-RES; Log10 Concentration −5.0): 30% | Percent Growth (NCI/ADR-RES; Log10 Concentration −6.0): 99% | Percent Growth (NCI/ADR-RES; Log10 Concentration −7.0): 99% | Percent Growth (NCI/ADR-RES; Log10 Concentration −8.0): 100% | GI50 (SK-MEL-28): 2510 nM | TGI (SK-MEL-28): 7.42E−6 | Percent Growth (SK-MEL-28; Log10 Concentration −4.0): −84% | Percent Growth (SK-MEL-28; Log10 Concentration −5.0): −14% | Percent Growth (SK-MEL-28; Log10 Concentration −6.0): 92% | Percent Growth (SK-MEL-28; Log10 Concentration −7.0): 94% | Percent Growth (SK-MEL-28; Log10 Concentration −8.0): 102% | GI50 (MOLT-4): 2050 nM | TGI (MOLT-4): 5.71E−6 | Percent Growth (MOLT-4; Log10 Concentration −4.0): −39% | Percent Growth (MOLT-4; Log10 Concentration −5.0): −27% | Percent Growth (MOLT-4; Log10 Concentration −6.0): 85% | Percent Growth (MOLT-4; Log10 Concentration −7.0): 85% | Percent Growth (MOLT-4; Log10 Concentration −8.0): 94% | GI50 (NCI-H23): 2590 nM | TGI (NCI-H23): 8.51E−6 | Percent Growth (NCI-H23; Log10 Concentration −4.0): −70% | Percent Growth (NCI-H23; Log10 Concentration −5.0): −7% | Percent Growth (NCI-H23; Log10 Concentration −6.0): 98% | Percent Growth (NCI-H23; Log10 Concentration −7.0): 96% | Percent Growth (NCI-H23; Log10 Concentration −8.0): 93% | GI50 (NCI-H460): 13300 nM | TGI (NCI-H460): 3.10E−5 | Percent Growth (NCI-H460; Log10 Concentration −4.0): −69% | Percent Growth (NCI-H460; Log10 Concentration −5.0): 67% | Percent Growth (NCI-H460; Log10 Concentration −6.0): 99% | Percent Growth (NCI-H460; Log10 Concentration −7.0): 101% | Percent Growth (NCI-H460; Log10 Concentration −8.0): 100% | GI50 (MDA-MB-468): 578 nM | TGI (MDA-MB-468): 2.65E−6 | Percent Growth (MDA-MB-468; Log10 Concentration −4.0): −75% | Percent Growth (MDA-MB-468; Log10 Concentration −5.0): −48% | Percent Growth (MDA-MB-468; Log10 Concentration −6.0): 36% | Percent Growth (MDA-MB-468; Log10 Concentration −7.0): 96% | Percent Growth (MDA-MB-468; Log10 Concentration −8.0): 88% | GI50 (SK-MEL-5): 3810 nM | TGI (SK-MEL-5): 1.50E−5 | Percent Growth (SK-MEL-5; Log10 Concentration −4.0): −96% | Percent Growth (SK-MEL-5; Log10 Concentration −5.0): 21% | Percent Growth (SK-MEL-5; Log10 Concentration −6.0): 91% | Percent Growth (SK-MEL-5; Log10 Concentration −7.0): 99% | Percent Growth (SK-MEL-5; Log10 Concentration −8.0): 99% | GI50 (T-47D): 3070 nM | TGI (T-47D): 1.64E−5 | Percent Growth (T-47D; Log10 Concentration −4.0): −45% | Percent Growth (T-47D; Log10 Concentration −5.0): 13% | Percent Growth (T-47D; Log10 Concentration −6.0): 86% | Percent Growth (T-47D; Log10 Concentration −7.0): 84% | Percent Growth (T-47D; Log10 Concentration −8.0): 93% | GI50 (KM12): 8550 nM | TGI (KM12): 2.26E−5 | Percent Growth (KM12; Log10 Concentration −4.0): −85% | Percent Growth (KM12; Log10 Concentration −5.0): 46% | Percent Growth (KM12; Log10 Concentration −6.0): 99% | Percent Growth (KM12; Log10 Concentration −7.0): 97% | Percent Growth (KM12; Log10 Concentration −8.0): 103% | GI50 (COLO 205): 2060 nM | TGI (COLO 205): 4.17E−6 | Percent Growth (COLO 205; Log10 Concentration −4.0): −93% | Percent Growth (COLO 205; Log10 Concentration −5.0): −62% | Percent Growth (COLO 205; Log10 Concentration −6.0): 101% | Percent Growth (COLO 205; Log10 Concentration −7.0): 96% | Percent Growth (COLO 205; Log10 Concentration −8.0): 102% | GI50 (OVCAR-8): 2830 nM | TGI (OVCAR-8): 1.01E−5 | Percent Growth (OVCAR-8; Log10 Concentration −4.0): −86% | Percent Growth (OVCAR-8; Log10 Concentration −6.0): 91% | Percent Growth (OVCAR-8; Log10 Concentration −7.0): 96% | Percent Growth (OVCAR-8; Log10 Concentration −8.0): 98% | GI50 (HT29): 3300 nM | TGI (HT29): 1.05E−5 | Percent Growth (HT29; Log10 Concentration −4.0): −84% | Percent Growth (HT29; Log10 Concentration −5.0): 2% | Percent Growth (HT29; Log10 Concentration −6.0): 102% | Percent Growth (HT29; Log10 Concentration −7.0): 101% | Percent Growth (HT29; Log10 Concentration −8.0): 97% | GI50 (SF-539): 1980 nM | TGI (SF-539): 459E−6 | Percent Growth (SF-539; Log10 Concentration −4.0): −88% | Percent Growth (SF-539; Log10 Concentration −5.0): −46% | Percent Growth (SF-539; Log10 Concentration −6.0): 90% | Percent Growth (SF-539; Log10 Concentration −7.0): 85% | Percent Growth (SF-539; Log10 Concentration −8.0): 96% | GI50 (HS 578T): 13500 nM | TGI (HS 578T): 7.06E−5 | Percent Growth (HS 578T; Log10 Concentration −4.0): −10% | Percent Growth (HS 578T; Log10 Concentration −5.0): 59% | Percent Growth (HS 578T; Log10 Concentration −6.0): 89% | Percent Growth (HS 578T; Log10 Concentration −7.0): 93% | Percent Growth (HS 578T; Log10 Concentration −8.0): 93% | GI50 (CCRF-CEM): 682 nM | TGI (CCRF-CEM): 3.41E−6 | Percent Growth (CCRF-CEM; Log10 Concentration −4.0): −53% | Percent Growth (CCRF-CEM; Log10 Concentration −5.0): −36% | Percent Growth (CCRF-CEM; Log10 Concentration −6.0): 41% | Percent Growth (CCRF-CEM; Log10 Concentration −7.0): 97% | Percent Growth (CCRF-CEM; Log10 Concentration −8.0): 97% | GI50 (MDA-MB-435): 464 nM | TGI (MDA-MB-435): 1.89E−5 | Percent Growth (MDA-MB-435; Log10 Concentration −4.0): −52% | Percent Growth (MDA-MB-435; Log10 Concentration −5.0): 20% | Percent Growth (MDA-MB-435; Log10 Concentration −6.0): 30% | Percent Growth (MDA-MB-435; Log10 Concentration −7.0): 91% | Percent Growth (MDA-MB-435; Log10 Concentration −8.0): 98% | GI50 (ACHN): 1790 nM | TGI (ACHN): 5.68E−6 | Percent Growth (ACHN; Log10 Concentration −4.0): −83% | Percent Growth (ACHN; Log10 Concentration −5.0): −25% | Percent Growth (ACHN; Log10 Concentration −6.0): 75% | Percent Growth (ACHN; Log10 Concentration −7.0): 93% | Percent Growth (ACHN; Log10 Concentration −8.0): 103% | CC50 (ACHN; read-out: LC50): 27400 nM
